From patent US20200102349A1, “PEPTIDE REAGENTS AND METHODS FOR DETECTION AND TARGETING OF DYSPLASIA, EARLY CANCER AND CANCER” (THE REGENTS OF THE UNIVERSITY OF MICHIGAN, priority 2014, published 2020)

Experiments:
HT29 cells = assay: Peptide binding to colorectal cancer cells on confocal microscopy (HT29); type: cell-based, human; details: HT29, 5 μM, 3 min
Experimental: (§1) HT29, SW480, and SW620 cells (˜10^3) were grown on cover slips to ˜80% confluence. The cells were washed 1× with PBS and incubated with 5 μM of QRH*-Cy5.5 and PEH*-Cy5.5 for 3 min at RT. The cells were then washed 3× in PBS, fixed with 4% paraformaldehyde (PFA) for 5 min, washed 1× with PBS, and then mounted on glass slides with ProLong Gold reagent containing DAPI (Invitrogen). Confocal fluorescence images were collected with FITC, Cy5.5, and DAPI filters (Leica Inverted SPSX Confocal Microscope System) using a 63× oil-immersion objective. Fluorescence intensities from 5 cells in 2 independent images were quantified using custom Matlab (Mathworks) software.
(§2) We assessed binding of QRH*-Cy5.5 to a panel of colorectal cancer cells that vary in EGFR expression level on confocal microscopy. We observed binding of QRH*-Cy5.5 to the surface (arrows) of HT29, SW480, and SW620 cells with decreasing strength, FIG. 3A-C, scale bars 30 μm. […] Results are an average of 10 cells from 2 independent images. EGFR expression is shown on Western blot, FIG. 3H.

SW480 cells = assay: Peptide binding to colorectal cancer cells on confocal microscopy (SW480); type: cell-based, human; details: SW480, 5 μM, 3 min
Experimental: as §1, §2

SW620 cells = assay: Peptide binding to colorectal cancer cells on confocal microscopy (SW620); type: cell-based, human; details: SW620, 5 μM, 3 min
Experimental: as §1, §2

[1] = system: colonic dysplasia (flat lesions and polyps); assay: In vivo NIR fluorescence endoscopy of colon in CPC;Apc mouse; details: for mean (±SD) log of the T/B ratio: topical 100 μM, 5 min incubation
Experimental: (§3) For the in vivo fluorescence images of mouse colon, the T/B ratios for flat dysplasia and polyps were log-transformed to improve normality. The fold-change between classification pairs was estimated using the anti-log of the difference in the log-transformed data. Differences in results between the experimental and control peptides were evaluated on t-test. *P<0.05 was considered significant. Similar methods were used to evaluate the ex vivo fluorescence images of human colonic specimens. The results were plotted on a receiver-operator characteristic (ROC) curve. Co-localization of peptide and antibody binding was evaluated on Pearson's correlation coefficient. All analyses were performed using custom Matlab software (MathWorks Inc).
Mouse imaging studies were performed with approval of the University of Michigan Committee on the Use and Care of Animals (UCUCA). The mice were housed in pathogen-free conditions and supplied water ad libitum under controlled conditions of humidity (50±10%), light (12/12 hour light/dark cycle) and temperature (25° C.). Anesthesia was induced and maintained via a nose cone with inhaled isoflurane mixed with oxygen at a concentration of 2-4% at a flow rate of ˜0.5 L/min. The colon was first rinsed with tap water to remove mucous and debris. White light illumination was used first to identify anatomic landmarks, including polyps, mucosal folds, colonic segment, and distance of endoscope tip from anus, to register images with histology. The Cy5.5-labeled peptides were delivered at a concentration of 100 μM in a volume of 1.5 mL through the 3 Fr instrument channel. After 5 min for incubation, the colon was rinsed 3× with a tap water to remove the unbound peptides. After imaging was completed, the mice were euthanized. The colon was resected, and divided along the longitudinal axis. Flat lesions and polyps were identified on fluorescence, excised perpendicular to the mucosal surface, and processed for histology (H&E). We collected images from mice (n=5) that ranged in age from 7 to 10 months.
Imaging was performed using a small animal endoscope (Karl Storz Veterinary Endoscopy).^39 A xenon light source provides white light illumination via a fluid light cable. A diode-pumped solid state laser (TechnicaLaser Inc) provides excitation at λex=671 nm. The laser beam is expanded to a diameter of 3 mm to fill the aperture of the light cable. The laser power at the tip of the endoscope is <2 mW. The white light images reflect off a dichroic mirror (Semrock Inc, # FF685-Di02-25×36, λc=685 nm), and are focused by an achromatic doublet (Edmund Optics Inc, #32-323). They pass through a neutral density filter (OD 1), and are detected by a color camera (Point Grey Research, # GX-FW-28S5C-C). The fluorescence images pass through the dichroic and a band pass filter (Semrock Inc, # FF01-716/40-25, λC=716 nm, Δλ=40 nm), and are focused on a monochrome camera (Point Grey Research, # GX-FW-28S5M-C). All videos (1932×1452 resolution) are recorded at 15 frames per sec via a firewire connection.
White light and fluorescence videos were exported in avi format with 24 (RGB) and 8 (grayscale) bit digital resolution for the color and fluorescence images, respectively. […] Individual frames were exported using custom Matlab software. On the fluorescence images, 3 regions of interest (ROI, 25×25 pixels) were picked at random within the dysplastic lesion and within adjacent areas of normal-appearing mucosa. The mean intensities within these ROI's on the fluorescence images were measured. The target to-background (T/B) ratio for each image was determined by ratioing the mean intensities of these two ROIs.

human colonic dysplasia = assay: Binding of EGFR peptide and antibody to human colonic dysplasia specimens, confocal microscopy; details: for log transformed fluorescence intensity, mean (±std): 5 μM, 10 min
Experimental: as §3
Specimens of human colonic mucosa were obtained from biopsy during routine colonoscopy, frozen in OCT, cut in 10 μm sections, and incubated with QRH*-Cy5.5 (5 μM) in 1×PBS for 10 min at RT. The sections were washed 3× with PBS and incubated overnight at 4° C. with 1:1000 dilution of primary monoclonal rabbit anti-EGFR antibody (Cell Signaling Technology, #4267, isotype IgG). The sections were washed with PBS 3× and incubated with 1:500 dilution of Alexa Fluor 488-labeled secondary goat anti-rabbit antibody (Invitrogen) for 1 hour at RT. The sections were washed with PBS 3×, and fixed with 4% PFA for 10 min. The sections were then washed with PBS 1×, and mounted with ProLong Gold reagent containing DAPI (Invitrogen). Confocal fluorescence images were collected with DAPI, FITC and Cy5.5 filters with 20× objective (Leica TCS SP5 Microsystems). The mean fluorescence intensities from 3 boxes (dimensions of 30×30 μm2) located completely within the surface epithelium of each specimen were measured. […] Adjacent sections were processed for routine histology (H&E) that was reviewed by two gastrointestinal pathologists (SRO and HDA).

[2] = system: high-grade dysplasia in human esophagus; assay: Binding of QRH*-Cy5.5 to high-grade dysplasia in human esophagus

“QRHKPRE (SEQ ID NO: 1) with Cy5.5 fluorophore attached via a GGGSK linker (SEQ ID NO: 18) on the C-terminus [QRH*-Cy5.5]” was tested, and the “fluorescence intensity of binding (mean±std)” value (HT29 cells) was 3.6±0.6, the “fluorescence intensity of binding (mean±std)” value (SW480 cells) was 2.4±0.4 and the “fluorescence intensity of binding (mean±std)” value (SW620 cells) was 1.0±0.3. For the same substance, the “mean fold-difference of T/B, QRH*-Cy5.5 versus PEH*-Cy5.5” value ([1]; flat lesions (n=15)) was 2.05, the “mean (±SD) log of the T/B ratio” value ([1]; flat lesions (n=15)) was 0.420±0.103 and the “mean fold-difference of T/B, QRH*-Cy5.5 versus PEH*-Cy5.5” value ([1]; polyps (n=15)) was 2.43. For the same substance, the “mean (±SD) log of the T/B ratio” value ([1]; polyps (n=15)) was 0.572±0.181, the “NIR fluorescence signal from polyp and flat lesions in vivo” value ([1]; topical, distal colon, 5 min) was “increased intensity” and the “average fold-change for dysplasia compared to normal” value (human colonic dysplasia) was 19.4. The “log transformed fluorescence intensity, mean (±std)” value (human colonic dysplasia; dysplasia (n=29)) was 1.04±0.54, the “log transformed fluorescence intensity, mean (±std)” value (human colonic dysplasia; normal (n=15)) was −0.248±0.49 and the “staining of high-grade dysplasia (HGD)” value [2] was “Intense staining”.
